Converted amounts (≈) assume the structure as drawn. The source made the active and inactive calls. No cut-off for these calls is given here.
Assays:
[1] = biological target: T1, Quinolone resistance protein NorA (Staphylococcus aureus) (UniProt P0A0J7); conditions: 1199B
T1 sequence (whole entry): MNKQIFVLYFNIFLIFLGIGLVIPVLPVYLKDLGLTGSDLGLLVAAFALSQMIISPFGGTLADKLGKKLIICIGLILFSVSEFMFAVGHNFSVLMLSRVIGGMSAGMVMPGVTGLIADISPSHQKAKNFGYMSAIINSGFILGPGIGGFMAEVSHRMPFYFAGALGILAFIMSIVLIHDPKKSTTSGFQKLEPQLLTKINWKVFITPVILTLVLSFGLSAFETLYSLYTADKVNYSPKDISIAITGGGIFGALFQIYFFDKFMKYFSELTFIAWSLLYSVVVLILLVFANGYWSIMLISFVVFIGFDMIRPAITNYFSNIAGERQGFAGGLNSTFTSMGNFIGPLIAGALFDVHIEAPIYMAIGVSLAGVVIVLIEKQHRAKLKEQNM

[2] = biological target: T1, Quinolone resistance protein NorA (Staphylococcus aureus)
Staphylococcus aureus [3] = test: Antimicrobial activity against NorA overexpressing Staphylococcus aureus 1199B at 100 ug/ml after 18 hrs by twofold serial dilution method; assay type: functional, organism-based
Staphylococcus aureus [4] = test: Antimicrobial activity against Staphylococcus aureus 1199 at 100 ug/ml after 18 hrs by twofold serial dilution method; assay type: functional, organism-based
[5] = biological target: T1, Quinolone resistance protein NorA (Staphylococcus aureus); test: Inhibition of NorA efflux pump in Staphylococcus aureus 1199 assessed as fold reduction of ciprofloxacin MIC at 25 ug/ml
[6] = biological target: T1, Quinolone resistance protein NorA (Staphylococcus aureus); test: Inhibition of NorA efflux pump in Staphylococcus aureus 1199 assessed as fold reduction of ciprofloxacin MIC at 12.5 ug/ml
[7] = biological target: T1, Quinolone resistance protein NorA (Staphylococcus aureus); test: Inhibition of NorA efflux pump in Staphylococcus aureus 1199B assessed as fold reduction of ciprofloxacin MIC at 12.5 ug/ml
[8] = biological target: T1, Quinolone resistance protein NorA (Staphylococcus aureus); test: Inhibition of NorA efflux pump in Staphylococcus aureus 1199B assessed as fold reduction of ciprofloxacin MIC at 25 ug/ml
[9] = biological target: T1, Quinolone resistance protein NorA (Staphylococcus aureus); test: Inhibition of NorA efflux pump in Staphylococcus aureus 1199 assessed as fold reduction of ciprofloxacin MIC at 6.25 ug/ml
[10] = biological target: T1, Quinolone resistance protein NorA (Staphylococcus aureus); test: Inhibition of NorA efflux pump in Staphylococcus aureus 1199B assessed as fold reduction of ciprofloxacin MIC at 6.25 ug/ml

| SMILES | Activity (Staphylococcus aureus [3]) | Activity (Staphylococcus aureus [4]) | fold reduction [8] | also measured |
| --- | --- | --- | --- | --- |
| O=C(/C=C/C=C/c1ccc2c(c1)OCO2)N1CCCCC1 | – | – | – | MIC [1]: 2 µg/mL (≈ 7.01 µM); MIC [2]: 2 µg/mL (≈ 7.01 µM) |
| CC(C)=CCC/C(C)=C/C=C/C(=O)N1CCCC1 | inactive | inactive | – | – |
| CCCCCCCCNC(=O)/C=C/C=C(\C)CCC=C(C)C | inactive | inactive | 4 | fold reduction [5]: 4; fold reduction [6]: 2; fold reduction [7]: 2 |
| COC(=O)[C@H]1[C@H]2C[C@@H]3c4[nH]c5cc(OC)ccc5c4CCN3C[C@H]2C[C@@H](OC(=O)c2cc(OC)c(OC)c(OC)c2)[C@@H]1OC | – | – | 4 | fold reduction [5]: 2 |
| C/C(C=O)=C\CCC(C)CCCC(=O)NCc1ccccc1 (stereo not given) | inactive | inactive | – | – |
| CC(C)=CCC/C(C)=C/C=C/C(=O)NCc1ccccc1 | inactive | inactive | 4 | fold reduction [5]: 2; fold reduction [7]: 2 |
| C/C(C=O)=C\CCC(C)CCCC(=O)N1CCCCC1 (stereo not given) | inactive | inactive | – | – |
| CCCCCCCCNC(=O)/C=C/C=C(\C)CC/C=C(\C)C=O | inactive | inactive | 4 | fold reduction [5]: 2; fold reduction [6]: 2; fold reduction [7]: 2 |
| CC(C)=CCC/C(C)=C/C=C/C(=O)O | inactive | inactive | – | – |
| CC(C)=CCCC(C)C/C=C/C(=O)N1CCCCC1 (stereo not given) | inactive | inactive | – | fold reduction [7]: 2 |
| CCCCCCCCNC(=O)CCCC(C)CCC=C(C)C (stereo not given) | inactive | inactive | – | – |
| C/C(C=O)=C\CC/C(C)=C/C=C/C(=O)N1CCCC1 | inactive | inactive | – | – |
| CC(C)=CCC/C(C)=C/C=C/C(=O)Nc1ccccc1 | inactive | inactive | – | – |
| C/C(C=O)=C\CC/C(C)=C/C=C/C(=O)N1CCCCC1 | inactive | inactive | 4 | fold reduction [9]: 2; fold reduction [10]: 2 |
| CC(C)=CCC/C(C)=C/C=C/C(=O)N1CCCCC1 | inactive | inactive | – | fold reduction [6]: 2; fold reduction [7]: 2 |
| C/C(C=O)=C\CC/C(C)=C/C=C/C(=O)NCc1ccccc1 | inactive | inactive | 4 | fold reduction [5]: 2; fold reduction [7]: 2 |

| SMILES | Activity (Staphylococcus aureus [3]) | Activity (Staphylococcus aureus [4]) | fold reduction [8] | also measured |
| --- | --- | --- | --- | --- |
| CC(C)=CCCC(C)C/C=C/C(=O)NCc1ccccc1 (stereo not given) | inactive | inactive | – | MIC [1]: 4 µg/mL (≈ 14 µM); MIC [2]: 4 µg/mL (≈ 14 µM) |
| CC(C)=CCC/C(C)=C/C=C/C(=O)N(C(C)C)C(C)C | inactive | inactive | 4 | fold reduction [5]: 2 |
| COc1ccc(NC(=O)/C=C/C=C(\C)CCC=C(C)C)cc1 | inactive | inactive | – | – |
| COc1ccccc1NC(=O)CCCC(C)CCC=C(C)C (stereo not given) | inactive | inactive | – | – |
| CC(C)c1cc2c(c(O)c1O)[C@@]1(C(=O)O)CCCC(C)(C)[C@@H]1CC2 | – | – | 2 | fold reduction [5]: 2 |
| C/C(C=O)=C\CC/C(C)=C/C=C/C(=O)N1CCOCC1 | inactive | inactive | – | – |
| CC(C)=CCC/C(C)=C/C=C/C(=O)NC(C)C | inactive | inactive | – | – |
| CC(C)=CCC/C(C)=C/C=C/C(=O)NCC(C)C | inactive | inactive | – | – |
| COc1ccccc1NC(=O)/C=C/CC(C)CCC=C(C)C (stereo not given) | inactive | inactive | – | fold reduction [7]: 2 |
| COc1ccccc1NC(=O)/C=C/CC(C)CC/C=C(\C)C=O (stereo not given) | inactive | inactive | 4 | – |
| CCCCCCCCNC(=O)/C=C/CC(C)CCC=C(C)C (stereo not given) | inactive | inactive | – | – |
| CC(C)=CCC/C(C)=C/C=C/C(=O)N1CCOCC1 | inactive | inactive | – | – |
| CC(C)=CCC/C(C)=C/C=C/C(=O)Nc1ccccc1C | inactive | inactive | – | – |
| CCCCCCCCNC(=O)/C=C/CC(C)CC/C=C(\C)C=O (stereo not given) | inactive | inactive | 4 | – |
| C/C(C=O)=C\CC/C(C)=C/C=C/C(=O)N(C(C)C)C(C)C | inactive | inactive | 4 | fold reduction [7]: 2 |
| COc1ccccc1NC(=O)/C=C/C=C(\C)CCC=C(C)C | inactive | inactive | 4 | fold reduction [5]: 2 |
